From patent US20230116733A1, “NOVEL INDAZOLE DERIVATIVE AND USE THEREOF” (KOREA RESEARCH INSTITUTE OFCHEMICAL TECHNOLOGY, priority 2019, published 2023)
Entries after “also recorded” stand apart in the source; their conditions may differ.

How the values were obtained:
[1] = system: YAP; experiment: Phosphorylation of YAP protein in liver cancer cells (FIG. 1); assay type: cell-based
[2] = biological target: T1, TRIB2 (Homo sapiens, UniProt Q92519); experiment: Phosphorylation of TRIB2 protein in liver cancer cells (FIG. 1); assay type: cell-based; design: endogenous in cells; host or cells: HepG2; conditions: liver cancer cell line HepG2, dose-dependent
T1 sequence (Q92519 1-343): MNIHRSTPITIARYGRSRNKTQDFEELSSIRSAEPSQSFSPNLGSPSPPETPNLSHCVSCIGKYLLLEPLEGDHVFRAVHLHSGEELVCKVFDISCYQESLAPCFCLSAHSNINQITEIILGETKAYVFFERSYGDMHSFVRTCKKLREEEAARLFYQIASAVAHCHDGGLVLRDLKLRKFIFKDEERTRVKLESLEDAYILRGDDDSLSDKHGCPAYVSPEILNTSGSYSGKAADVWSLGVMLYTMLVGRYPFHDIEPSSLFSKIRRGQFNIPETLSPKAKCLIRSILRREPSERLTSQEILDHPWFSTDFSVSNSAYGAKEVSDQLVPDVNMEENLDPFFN

[3] = biological target: T1, TRIB2; experiment: TRIB2 kinase activity assay (Eurofins, 33P-ATP filter binding); assay type: biochemical; design: purchased Eurofins; conditions: human TRIB2, 15 μM gamma-33P-ATP, 120 minutes at room temperature; read-out: TRIB2 Kimase activity assay IC50
Protocol: TRIB2 kinase activity assay was conducted in Eurofins. […] Afterward, the reaction was terminated with 0.5% phosphoric acid.

[4] = system: YAP; experiment: p-YAP level in ovarian cancer cell line A2780 (FIG. 1); assay type: cell-based
[5] = system: A549; experiment: Assay for anticancer activity, cell viability (Cell Counting Kit-8); assay type: cell-based; conditions: A549 cells, 10 μM compound, 3 days
Protocol: (§1) Assay for anticancer activity was conducted as follows. Corresponding cancer cells were seeded at a density of 4,000 cells/well into 96-well plates and stabilized for 24 hours. Thereafter, the cells in each well were treated with 10 μM of the each of the compounds for 3 days. Then, cell viability was assayed using Cell Counting Kit-8 from Dojindo.

[6] = system: HepG2; experiment: as above; assay type: cell-based; conditions: for Cell viability (% of Con. 10 μM) HepG2: HepG2 cells, 10 μM compound, 3 days
Protocol: as §1

[7] = system: K562; experiment: as above; assay type: cell-based; conditions: K562 cells, 10 μM compound, 3 days
Protocol: as §1

[8] = system: U937; experiment: as above; assay type: cell-based; conditions: U937 cells, 10 μM compound, 3 days
Protocol: as §1

IC50 [3] | SMILES | YAP protein degradation [1] | inhibitory activity against YAP (in words) [1] | phosphorylation of YAP protein ([1]; liver cancer cell line HepG2, dose-dependent, FIG. 1) | phosphorylation of TRIB2 protein [2] | level of p-YAP [4] | Cell viability (% of Con. 10 μM) A549 [5] | inhibition of the growth of liver cancer cell line HepG2 (in words) ([6]; HepG2) | Cell viability (% of Con. 10 μM) HepG2 [6] | Cell viability (% of Con. 10 μM) K562 [7] | Cell viability (% of Con. 10 μM) U937 [8]
10 to 100 nM | O=C(NC1CCNCC1)c1n[nH]c2ccc(-c3cccnc3)cc12 [Compound 4, N-(piperidin-4-yl)-5-(pyridin-3-yl)-1H-indazole-3-carboxamide] | – | – | – | – | – | – | – | – | 41 % of Con. | 50 % of Con.
10 to 100 nM | O=C(NC1CCNCC1)c1n[nH]c2ccc(-c3cccnc3F)cc12 [Compound 2, 5-(2-fluoropyridin-3-yl)-N-(piperidin-4-yl)-1H-indazole-3-carboxamide] | – | – | – | – | – | – | – | – | 16 % of Con. | 12 % of Con.
10 to 100 nM | CC(C)(C)OC(=O)N1CCC(NC(=O)c2n[nH]c3ccc(-c4cccnc4F)cc23)CC1 [Compound 1, tert-butyl-4-(5-(2-fluoropyridin-3-yl)-1H-indazole-3-carboxamido)piperidine-1-carboxylate] | – | – | – | – | – | – | – | – | 49 % of Con. | 34 % of Con.
10 to 100 nM | O=Cc1ccc(-c2ccc3[nH]nc(C(=O)Nc4ccncc4)c3c2)o1 [Compound 47, 5-(5-formylfuran-2-yl)-N-(pyridin-4-yl)-1H-indazole-3-carboxamide] | – | – | – | – | – | 55 % of Con. | – | 32 % of Con. | – | –
1 to 10 nM | O=C(Nc1ccc2c(c1)CCNC2)c1n[nH]c2ccc(-c3cccnc3F)cc12 [Compound 64, 5-(2-fluoropyridin-3-yl)-N-(1,2,3,4-tetrahydroisoquinolin-6-yl)-1H-indazole-3-carboxamide] | – | – | – | – | – | 8 % of Con. | – | 7 % of Con. | – | –

SMILES | IC50 [3] | YAP protein degradation [1] | inhibitory activity against YAP (in words) [1] | phosphorylation of YAP protein ([1]; liver cancer cell line HepG2, dose-dependent, FIG. 1) | phosphorylation of TRIB2 protein [2] | level of p-YAP [4] | Cell viability (% of Con. 10 μM) A549 [5] | inhibition of the growth of liver cancer cell line HepG2 (in words) ([6]; HepG2) | Cell viability (% of Con. 10 μM) HepG2 [6] | Cell viability (% of Con. 10 μM) K562 [7] | Cell viability (% of Con. 10 μM) U937 [8]
O=C(Nc1ccncc1)c1n[nH]c2ccc(-c3cccnc3F)cc12 [Compound 17, 5-(2-fluoropyridin-3-yl)-N-(pyridin-4-yl)-1H-indazole-3-carboxamide] | 1 to 10 nM | promote YAP protein degradation | inhibitory activity against YAP | decreases the phosphorylation | decreases the phosphorylation | reduce the level of p-YAP; also recorded: has an inhibitory activity against YAP | 17 % of Con. | highly inhibitory | 15 % of Con. | – | –
